Data reported in patent US10477865B2, “Fungicidal compounds and methods of their use” (Auckland UniServices Limited, priority 2009, dated 2019).

Columns and labels:
[1] = Stability tests (absorbance at 428 nm in different testing solutions); assay type: physicochemical
Experimental: Stability was determined by re-suspending between 0.3 to 0.5 mg/mL of purified pigmented compound of Formula (IV) in different testing solutions according to Table 1, and measuring the absorbance at 428 nm every 24 hours for fifteen days. The test samples were kept in glass vials under constant incandescent light (except for the temperature stability test).

R. solani ICMP11620 = assay type: cell-based, Rhizoctonia solani
Candida albicans SC5614 = experiment: Agar diffusion assay, antimicrobial activity; assay type: cell-based; conditions: data not shown
Escherichia coli SVB-B11 = experiment: Agar diffusion assay, antimicrobial activity; assay type: cell-based; conditions: data not shown
[2] = test system: S. sclerotiorum ICMP13844; experiment: Agar diffusion assay, inhibition of mycelial growth; assay type: cell-based, Sclerotinia sclerotiorum; conditions: HPLC purified; YPD agar, 25° C., 5 days; data not shown
[3] = test system: S. cepivorum ICMP10916-91; experiment: Inhibition of spore germination; assay type: cell-based, Sclerotium cepivorum
Solubility = assay type: physicochemical; conditions: in water and polar organic solvents such as methanol, and ethanol
A. supraseptata SVB-F2 = experiment: Agar diffusion assay, inhibition of mycelial growth; assay type: cell-based, Apiognomonia supraseptata; conditions: HPLC purified; YPD agar, 25° C., 5 days; data not shown
[4] = Stability tests (absorbance at 428 nm in different testing solutions); assay type: physicochemical; conditions: after 10 days
B. cinera ICMP16621 [5] = experiment: Agar diffusion assay, inhibition of mycelial growth; assay type: cell-based, Botrytis cinera; conditions: HPLC purified; YPD agar, 25° C., 5 days; data not shown
P. viticola ICMP5537 = experiment: Inhibition of spore germination; assay type: cell-based, Phomopsis viticola
[6] = Phosphomolybdenum antioxidant assay; conditions: compared with ascorbic acid; data not shown
[7] = test system: Staphylococcus epidermis SVB-B12; experiment: Agar diffusion assay, antimicrobial activity; assay type: cell-based; conditions: data not shown
A. alternata ICMP1099-96 = experiment: Inhibition of spore germination; assay type: cell-based, Alternaria alternata
B. cinera ICMP16621 [8] = experiment: Inhibition of spore germination; assay type: cell-based, Botrytis cinera
[9] = FRAP (ferric reducing antioxidant power) assay; conditions: compared with ascorbic acid; data not shown
M. grisea ICMP14481 = assay type: cell-based, Magnaporthe grisea
[10] = test system: Saccharomyces cerevisiae BM45; experiment: Agar diffusion assay, antimicrobial activity; assay type: cell-based; conditions: data not shown
[11] = test system: M. graminicola ICMP12504-95; assay type: cell-based, Mycosphaerella graminicola
[12] = test system: S. sclerotiorum ICMP13844; experiment: Inhibition of spore germination; assay type: cell-based, Sclerotinia sclerotiorum
[13] = Radical scavenging ability; conditions: compared with ascorbic acid; data not shown
[14] = test system: V. inaequalis ICMP4095-96; experiment: Inhibition of spore germination; assay type: cell-based, Venturia inaequalis
Candida utilis 02/D00981 = experiment: Agar diffusion assay, antimicrobial activity; assay type: cell-based; conditions: data not shown
[15] = test system: Pseudomonas aeruginosa SVB-B10; assay type: cell-based; conditions: agar diffusion; data not shown
[16] = Stability to common acids: Acetic acid
[17] = Stability to common acids: Malic acid
[18] = Stability to common alkalis: NaHCO3 10% w/w
[19] = Stability to microwave radiation: 5 min, domestic microwave (1000 W)
[20] = Stability to presence of sugars: Sucrose 10% w/w
[21] = Stability to temperature: 4° C. in methanol
[22] = Stability to temperature: 4° C. in water
[23] = Stability to temperature: 60° C. in methanol
[24] = Stability to temperature: 60° C. in water
[25] = Stability to temperature: 100° C. in water
[26] = Stability to temperature: −20° C. in methanol
[27] = Stability to temperature: −20° C. in water
[28] = all three concentrations tested: 2.7, 1.3 and 0.7 mg·mL-1

CCC(C)CC(C)/C=C(/C=C(C)/C=C/C=C/C=C/C=C/C=C/C=C/C1=C(C(=O)O)C2OOC(CO)C(O)C(O1)C2O)C(=O)O (single isomer, unassigned) [Compound 1, Epicoccaene]
Resistance to temperature and microwave radiation [1]: resistant
Initial absorbance (428 nm) [1, 16]: 1.61
Initial absorbance (428 nm) ([1]; Stability to common acids: Citric acid): 1.53
Final absorbance (428 nm) ([1]; Stability to common acids: Citric acid, after 10 days): 0.51
Initial absorbance (428 nm) ([1]; Stability to common acids: Lactic acid): 1.52
Final absorbance (428 nm) ([1]; Stability to common acids: Lactic acid, after 10 days): 0.68
Initial absorbance (428 nm) [1, 17]: 1.53
Initial absorbance (428 nm) ([1]; Stability to common alkalis: Na2CO3 10% w/w): 2.13
Final absorbance (428 nm) ([1]; Stability to common alkalis: Na2CO3 10% w/w, after 10 days): 2.12
Initial absorbance (428 nm) [1, 18]: 2.08
Initial absorbance (428 nm) ([1]; Stability to common alkalis: NaOH 10% w/w): 2.05
Final absorbance (428 nm) ([1]; Stability to common alkalis: NaOH 10% w/w, after 10 days): 2.04
Initial absorbance (428 nm) ([1]; Stability to light: In ethanol 5% v/v): 2.04
Final absorbance (428 nm) ([1]; Stability to light: In ethanol 5% v/v, after 10 days): 2.04
Initial absorbance (428 nm) ([1]; Stability to light: In methanol): 2.04
Final absorbance (428 nm) ([1]; Stability to light: In methanol, after 10 days): 2.04
Initial absorbance (428 nm) ([1]; Stability to light: In water): 2.05
Final absorbance (428 nm) ([1]; Stability to light: In water, after 10 days): 1.82
Final absorbance (428 nm) [1, 19]: 2.04
Initial absorbance (428 nm) [1, 19]: 2.05
Initial absorbance (428 nm) ([1]; Stability to presence of sugars: Dextrose 10% w/w): 2.08
Final absorbance (428 nm) ([1]; Stability to presence of sugars: Dextrose 10% w/w, after 10 days): 2.08
Initial absorbance (428 nm) ([1]; Stability to presence of sugars: Fructose 10% w/w): 2.02
Final absorbance (428 nm) ([1]; Stability to presence of sugars: Fructose 10% w/w, after 10 days): 2.03
Initial absorbance (428 nm) [1, 20]: 2.08
Final absorbance (428 nm) [1, 21]: 2.03
Initial absorbance (428 nm) [1, 21]: 2.05
Final absorbance (428 nm) [1, 22]: 2.06
Initial absorbance (428 nm) [1, 22]: 2.08
Final absorbance (428 nm) [1, 23]: 2.04
Initial absorbance (428 nm) [1, 23]: 2.05
Final absorbance (428 nm) [1, 24]: 2.06
Initial absorbance (428 nm) [1, 24]: 2.08
Final absorbance (428 nm) [1, 25]: 2.07
Initial absorbance (428 nm) [1, 25]: 2.08
Final absorbance (428 nm) [1, 26]: 2.06
Initial absorbance (428 nm) [1, 26]: 2.05
Final absorbance (428 nm) [1, 27]: 2.07
Initial absorbance (428 nm) [1, 27]: 2.08
Stability under acidic conditions ([1]; acidic conditions, colour changes from bright yellow to pale orange): unstable
Light sensitivity ([1]; dissolved in water at neutral pH): moderate light sensitivity
Resistance to light ([1]; in water at pH 8.0 or higher, in methanol or in sugar solutions (10% w/w)): resistance to light increased
Degradation in solution of organic acids ([1]; organic acids (10% w/w)): pronounced degradation
Final absorbance (428 nm) ([1]; pH stability, pH 3, after 10 days, constant incandescent light): 1.45
Initial absorbance (428 nm) ([1]; pH stability, pH 3, constant incandescent light): 1.46
Final absorbance (428 nm) ([1]; pH stability, pH 5, after 10 days, constant incandescent light): 1.67
Initial absorbance (428 nm) ([1]; pH stability, pH 5, constant incandescent light): 1.67
Final absorbance (428 nm) ([1]; pH stability, pH 7, after 10 days, constant incandescent light): 2.05
Initial absorbance (428 nm) ([1]; pH stability, pH 7, constant incandescent light): 2.05
Final absorbance (428 nm) ([1]; pH stability, pH 8, after 10 days, constant incandescent light): 2.08
Initial absorbance (428 nm) ([1]; pH stability, pH 8, constant incandescent light): 2.09
Final absorbance (428 nm) ([1]; pH stability, pH 10, after 10 days, constant incandescent light): 2.09
Initial absorbance (428 nm) ([1]; pH stability, pH 10, constant incandescent light): 2.09
minimal inhibition dose (MID) (R. solani ICMP11620): below 0.7 mg/mL
Inhibition of spore germination (R. solani ICMP11620; [28]): completely inhibit
Antimicrobial activity (Candida albicans SC5614): No antimicrobial activity
Antimicrobial activity (Escherichia coli SVB-B11): No antimicrobial activity
Activity against mycelial growth (zone of inhibition) [2]: strong activity
Inhibition of spore germination [3, 28]: completely inhibit
minimal inhibition dose (MID) ([3]; spore germination): below 0.7 mg/mL
Solubility (Solubility): readily soluble
Activity against mycelial growth (zone of inhibition) (A. supraseptata SVB-F2): strong activity
Final absorbance (428 nm) [4, 16]: 0.66
Final absorbance (428 nm) [4, 17]: 0.38
Final absorbance (428 nm) [4, 18]: 2.08
Final absorbance (428 nm) [4, 20]: 2.07
Activity against mycelial growth (zone of inhibition) (B. cinera ICMP16621 [5]): strong activity
Inhibition of spore germination (P. viticola ICMP5537; [28]): completely inhibit
minimal inhibition dose (MID) (P. viticola ICMP5537; spore germination): below 0.7 mg/mL
Antioxidant power by phosphomolybdenum assay [6]: comparable to those of ascorbic acid
Antimicrobial activity [7]: No antimicrobial activity
Inhibition of spore germination (A. alternata ICMP1099-96; [28]): completely inhibit
minimal inhibition dose (MID) (A. alternata ICMP1099-96; spore germination): below 0.7 mg/mL
Inhibition of spore germination (B. cinera ICMP16621 [8]; [28]): completely inhibit
Inhibition of spore germination (B. cinera ICMP16621 [8]; incubation in rich culture medium for 10 days, data not shown): completely inhibit
minimal inhibition dose (MID) (B. cinera ICMP16621 [8]; spore germination): below 0.7 mg/mL
Antioxidant power by FRAP [9]: comparable to those of ascorbic acid
Inhibition of spore germination (M. grisea ICMP14481; [28]): completely inhibit
minimal inhibition dose (MID) (M. grisea ICMP14481; spore germination): below 0.7 mg/mL
Antimicrobial activity [10]: No antimicrobial activity
Inhibition of spore germination [11]: resistant
Inhibition of spore germination [12, 28]: completely inhibit
minimal inhibition dose (MID) ([12]; spore germination): below 0.7 mg/mL
Radical scavenging ability [13]: comparable to those of ascorbic acid
Inhibition of spore germination [14, 28]: completely inhibit
minimal inhibition dose (MID) ([14]; spore germination): below 0.7 mg/mL
Antimicrobial activity (Candida utilis 02/D00981): No antimicrobial activity
Antimicrobial activity [15]: No antimicrobial activity
